Measurements published in patent US7160914B2, “Compounds that exhibit specific molecular recognition of mixed nucleic acid sequences and bind in the DNA minor groove as a dimer” (The University of North Carolina at Chapel Hill, priority 1999, dated 2007).

Tests used:
[1] = tested on: 265 bp EcoRI-PvuII restriction fragment from plasmid pBS; experiment: Quantitative DNase I footprinting; format: binding; details: for footprint in the 90–100 base region (GC-rich): 265 mer pBS fragment, DNase I; for binding to sites containing GC base pairs, such as ATGA, ACGA, and ATGT: several restriction fragments
Experimental: In order to characterize the DNA recognition properties of a series of analogs of furamidine (shown in FIG. 1), quantitative DNAaseI footprinting studies were conducted using of a number of derivatives with several different DNA sequences. Plasmid DNA restriction fragments were prepared and DNaseI footprinting experiments were conducted as described in C. Bailly, et al., Biochemistry 35, 1150 (1996) and C. Bailly et al., Anti Cancer Drug Design (in press, 1999).
FIG. 2. illustrates the results of a quantitative DNase I footprinting titration experiment with the compound DB293 on a 265 bp DNA fragment as described herein. The EcoRI-PvuII restriction fragment from plasmid pBS was 3′-end labeled at the EcoRI site with [α-^32P]dATP in the presence of AMV reverse transcriptase. […] Drug concentrations are (lanes 1–11) 0, 0.3, 0.6, 0.9, 1.2, 1.5, 1.8, 2.1, 2.4, 2.7, 3.0 μM for DB 293 and (lanes 12–15) 0, 1, 2 and 5 μM for DB270. Tracks labeled ‘G’ represent dimethylsulphate-piperidine markers specific for guanines. The track labeled DNA contained no drug and no enzyme. Numbers at the right side of the gel refer to the numbering scheme of the fragment. The rectangles on the left side refer to the positions of (open box) an AT-rich and (filled box) a GC-rich binding site for DB293. FIG. 2B is a graphical illustration of footprinting plots for the binding of DB293 to (open circles) the AT site 5′-AATTAA and (filled squares) the GC-rich site 5′-ACCATG. The relative band intensity R corresponds to the ratio Ic/Io where Ic is the intensity of the band at the ligand concentration c and Io is the intensity of the same band in the absence of DB293. The differential cleavage plots shown in FIG. 2C compare the susceptibility of the DNA to cutting by DNase I in the presence of (filled circles) 5 μM DB270 or (open squares) 1.5 μM DB293. Deviation of points towards the lettered sequence (negative values) corresponds to a ligand-protected site and deviation away (positive values) represents enhanced cleavage. The vertical scale is in units of ln(fa)–l(fc), where fa is the fractional cleavage at any bond in the presence of the drug and fc is the fractional cleavage of the same bond in the control. […] The rectangles below the sequence show the positions of (open box) the AT binding site and (filled box) the GC-rich site.

[2] = tested on: hairpin duplex oligo2-1; experiment: Thermal melting (Tm) of hairpin oligo2-1; format: binding; details: 1:1 and 2:1 ratios, single transitions
[3] = tested on: oligo2-1 hairpin duplex
Experimental: (§1) To pursue the comparative quantitative analysis of these compounds with DNA in more detail by using surface plasmon resonance, 5′-biotin labeled analogs of oligo2-1 and 2-2 were immobilized on a BIAcore four-channel streptavidine-coated sensor chip as follows: Immobilization of DNA and surface plasmon resonance (SPR) binding studies: 5′-biotin labeled hairpins were purchased with HPLC purification (Midland Co). […] Steady state analysis was performed with multiple injections f different concentrations of each compound over the SA surface at a flow rate of 20 μl/min, at 25° C.
(§2) Oligo1 was immobilized as a control sequence and one flow cell was left as an unmodified reference. […] The free compound is fixed by the concentration in the flow solution.

[4] = tested on: hairpin duplex oligo2 (93–104 base sequence region of the 265 mer pBS restriction fragment); experiment: Thermal melting (Tm) of hairpin oligo2; format: binding; details: oligo2 on titration with compound; 0.01 M MES, 0.001M EDTA
Experimental: In order to investigate the complexes of these compounds in more detail with GC rich sequences, a hairpin duplex model containing the 93–104 base sequence region from the 265 mer pBS restriction fragment was synthesized and is illustrated as oligo2 in FIG. 1. Oligo1 (also shown in FIG. 1) with the AATT sequence that has been used in the analysis of a large number of minor-groove agents provides a reference.
Thermal melting experiments were conducted with a Cary 4 spectrophotometer interfaced to a microcomputer. A thermistor fixed into a reference cuvette was used to monitor the temperature. The oligomers were added to 1 mL of buffer (0.01 M MES and 0.001M EDTA) in 1 cm path length reduced volume quartz cells, and the concentration was determined by measuring the absorbance at 260 nm. Experiments were generally conducted at a concentration of 2×10^−6 M for hairpin oligo2, and 3×10^−6 M for hairpin oligo2-1. Tm experiments for the complexes were conducted as a function of ratio.

[5] = tested on: oligo2-2 hairpin duplex; details: SPR, two site model
Experimental: as §1, §2

SMILES	footprint in the 90–100 base region (GC-rich) [1]	binding to sites containing GC base pairs, such as ATGA, ACGA, and ATGT [1]	melting temperatures of complexes with oligo2-1 [2]	binding to oligo2-1 relative to binding to oligo1 ([3]; SPR)	C50 (drug concentration required for half-maximal footprinting) at the ATGA site versus the neighboring ATTA site ([1]; ATGA site compared with ATTA site)	increase in Tm [4] [°C]	K2 relative to K1 (times larger) ([3]; also relative to binding of DB270)	macroscopic binding constant K1 (initial binding) ([3]; oligo2-1, two site model)	macroscopic binding constant K2 (second site after the first site is filled) ([3]; oligo2-1, two site model)	binding to oligo2-2 compared with oligo2-1 [5]
N=C(N)c1ccc2nc(-c3ccc(-c4nc5ccc(C(=N)N)cc5[nH]4)o3)[nH]c2c1 [DB270, reference compound]	negligible footprints	not and do not bind strongly or footprint	below the DB293 value	at least a factor of ten weaker						
N=C(N)c1ccc(-c2ccc(-c3nc4ccc(C(=N)N)cc4[nH]3)o2)cc1 [DB293]	very strong footprint	strongly binds			significantly lower	≤ 30	over 25 times	2.8×10^6	7.3×10^7	Very similar results
